{"source": "patent US11466067B2", "about": "(priority 2019, dated 2022)", "key": {"[1]": {"tested_on": "circulating cytokines, chemokines, growth factors", "type": "in vivo, mice", "details": "mouse, in vivo"}, "[2]": {"experiment": "Salt screening for dimer stability (SE-HPLC)", "type": "physicochemical", "details": "buffer exchange, data not shown", "experimental": "Formulations were prepared with the delivery construct at 20 g/Lin 10 mM Sodium Phosphate at pH 7.0 with the salts and salt concentrations as indicated in Table 53. The percentage of the IL-10 delivery construct present in dimer form, monomer form, and high molecular weight aggregates (HMW Agg) was assessed by size exclusion HPLC as indicated previously."}, "[3]": {"experiment": "Single oral capsule dose in NHP: plasma caffeine by LC-MS/MS", "type": "in vivo, Macaca fascicularis", "experimental": "In order to quantitate plasma caffeine levels, an LC-MS/MS detection system was employed. A 25-μL matrix aliquot was fortified with 25 μL of 2.00 μg/mL caffeine-trimethyl-^13C3 internal standard working solution. Analytes were isolated through supported liquid extraction (SLE). A portion of the eluate was transferred and evaporated under a nitrogen stream at approximately 45° C., and the remaining residue reconstituted with 500 μL of water/acetonitrile (95:5, v/v). The final extract was analyzed via HPLC with MS/MS detection using positive ion electrospray and reverse phase chromatography. Caffeine concentration was determined using similarly run calibration controls.\nIL-10 delivery construct dosing at multiple fixed doses in non-naïve adult male Macaca fascicularis was conducted by Valley Biosystems (West Sacramento, Calif.). […] Dosing groups are described in TABLE 45.\nBlood samples were collected in K2EDTA tubes from each animal pre-dose and at 0.5, 1, 2, 3, 4, 5, 6, 7, 8, and 24 hours post-dose. Animals were returned to home cages following the 2-hour sample collection. Following physical restraint, blood samples were collected via direct venous puncture using a cephalic, femoral or saphenous vein, which were processed to plasma and stored frozen at −60° C. until shipment."}, "[4]": {"experiment": "Surfactant evaluation under shear stress (visual, turbidity, SEC-HPLC)", "type": "physicochemical", "details": "for SEC-HPLC forms of construct (HMW, dimer, monomer) with surfactant: 1×PBS, before/after vortexing", "experimental": "Following vortexing, the solution was visually inspected. The sample without a surfactant was slightly hazy while the samples with the surfactant were clear after vortexing. The turbidity (340-360 nm) of the solution was assessed after vortexing.\nSEC-HPLC was carried out on the IL-10 delivery construct formulations before (FIG. 93) and after (FIG. 94) vortexing (TABLE 48)."}, "[5]": {"details": "initial liquid formulation screen"}, "[6]": {"tested_on": "STAT3, IL-1Ra", "experiment": "pSTAT3/STAT3 and systemic IL-1Ra in non-inflamed mice (ELISA MSD)", "type": "in vivo"}, "[7]": {"experiment": "Intraluminal injection in T-cell transfer colitis model, rhIL-10 ELISA", "type": "in vivo, BALB/c and SCID mice", "details": "159 pmoles intraluminal", "experimental": "This study was conducted to examine the potential for the carrier protein to transport rhIL-10 from the intestinal lumen into the submucosal region in inflamed intestinal tissue. The T lymphocyte (T cell) transfer model was used as it is a well-established model of induced chronic colitis in mice and presents many of the essential immunological hallmarks observed in IBD patients. Nine BALB/c mice and twelve SCID mice, including nine with the colitis-like model of inflammation, were dosed with 20 μl of test article via intraluminal injection into the distal ileum and the proximal, middle and distal colon.\nPBS vehicle was administered to healthy BALB/c mice and both healthy and induced colitis SCID mice (n=3/group). In each group, two mice were terminated 10 minutes after intraluminal injections, and one was terminated 40 minutes after intraluminal injections. Intestinal tissue and serum were collected. Collected tissue was fixed, embedded, sectioned and H&E stained for histological assessment of inflammatory status. ELISA analysis to measure rhIL 10 was performed on lysates prepared from intestinal tissue and serum (FIGS. 106A-106D)."}, "[8]": {"tested_on": "STAT3 phosphorylation", "experiment": "pSTAT3 and hIL-10 immunofluorescence in intestine 40 min post oral gavage", "type": "in vivo, rat", "experimental": "This observation is consistent with findings in mice that intestinal epithelial cells can express IL-10 receptors at their apical surface under certain conditions associated with development and maintenance of barrier function. […] In order to quantify how test articles affected intestinal IL-10 signal transduction pathways, image analysis was performed: high-throughput image batches were collected, segmented by epithelial versus Lamina propria localization, and then by cellular features."}, "[9]": {"tested_on": "STAT3", "details": "20 min stimulation"}, "[10]": {"experiment": "Dimer purity during compaction/granulation (SEC)", "type": "physicochemical", "details": "slugging/granulation formulation intermediates", "experimental": "The compatibility of the IL-10 delivery construct was evaluated for the initial steps of tablet formation. Blending and compaction processes were conducted. Both roller compaction and slugging was conducted, with subsequent milling to granules in each case. In order to explore excipient functionality and compatibility, different excipients were included in the three formulations.\nRoller compaction was conducted at 2 forces, and the resulting ribbons were individually granulated. Materials were reconstituted in PBS at 0.65 mg/mL SEQ ID NO: 5 and filtered with 0.2 um filter (Advantec) before SEC analysis. Samples were also incubated at 40° C. for two weeks before reconstitution and analysis.\nThe same analysis was conducted for the intermediates generated in the slugging/granulation process (TABLE 30). As well as the different compaction method, the slugging/granulation batch differed in binder and lubricant composition."}}, "data": [{"molecule": "Nc1ccc(O)c(C(=O)O)c1", "note": "[5-ASA, 5-aminosalicylic acid, reference compound]", "values": [{"measurement": "oxazolone-induced increase in plasma GCSF/CSF3", "setting": "[1]", "result": "attenuated"}]}, {"molecule": "N.N.O=S(=O)(O)O", "note": "[NH4SO4, ammonium sulfate]", "values": [{"measurement": "behaviour of construct at higher salt concentrations", "setting": "[2]", "result": "precipitate during buffer exchange"}]}, {"molecule": "O=S(=O)([O-])[O-].[Na+].[Na+]", "note": "[Na2SO4, sodium sulfate]", "values": [{"measurement": "behaviour of construct at higher salt concentrations", "setting": "[2]", "result": "precipitate during buffer exchange"}]}, {"molecule": "Cn1c(=O)c2c(ncn2C)n(C)c1=O", "note": "[caffeine]", "values": [{"measurement": "plasma caffeine Tmax", "setting": "[3]; all doses", "result": 4, "unit": "hours post dose"}, {"measurement": "time at which absorption of caffeine was observable (capsule opening)", "setting": "[3]; cynomolgus monkey, in vivo", "result": "2-3 hours post dose"}]}, {"molecule": "poloxamer 188", "values": [{"measurement": "SEC-HPLC forms of construct (HMW, dimer, monomer) with surfactant", "setting": "[4]", "result": "seemed to stabilize the IL-10 delivery construct"}, {"measurement": "aggregation of target construct under shear stress", "setting": "[5]", "result": "reduced aggregation"}]}, {"molecule": "polysorbate 20", "values": [{"measurement": "turbidity (340-360 nm) after vortexing", "setting": "[4]; 0.1% in 1×PBS", "result": "increase in absorbance was also observed"}, {"measurement": "SEC-HPLC forms of construct (HMW, dimer, monomer) with surfactant", "setting": "[4]", "result": "most amount of monomer before vortexing"}]}, {"molecule": "polysorbate 80", "values": [{"measurement": "SEC-HPLC forms of construct (HMW, dimer, monomer) with surfactant", "setting": "[4]", "result": "increase in HMW aggregates and monomers"}]}, {"molecule": "rhIL-10: recombinant human IL-10 (SEQ ID NO: 2), commercial preparation used as comparator", "values": [{"measurement": "increase in ratio of pSTAT3 to total STAT3", "setting": "[6]; construct 1 mg/kg, rhIL-10 0.9 mg/kg (equimolar), non-inflamed colon tissue", "result": "did not significantly alter"}, {"measurement": "increase of systemic IL-1Ra", "setting": "[6]; construct 10 mg/kg, rhIL-10 3 mg/kg (equimolar)", "result": "did not significantly increase"}, {"measurement": "rhIL-10 in serum of inflamed animals", "setting": "[7]", "result": "minimal amounts"}, {"measurement": "hIL-10 and pSTAT3 in intestinal tissue", "setting": "[8]", "result": "pSTAT3 induction in enterocytes but not in cells within the Lamina propria"}, {"measurement": "amplitude of pSTAT3/total STAT3", "setting": "[9]", "result": 2.19, "unit": "%"}]}, {"molecule": "Drug Substance (DS) (protein, dimer) MVEEALNIFDECRSPCSLTPEPGKPIQSKLSIPSDVVLDEGVLYYSMTINDEQNDIKDEDKGESIITIGEFATVRATRHYVNQDAPFGVIHLDITTENGTKTYSYNRKEGEFAINWLVPIGEDSPASIKISVDELDQQRNIIEVPKLYSIDLDNQTLEQWKTQGNVSFSVTRPEHNIAISWPSVSYKAAQKEGSRHKRWAHWHTGLALCWLVPMDAIYNYITQQNCTLGDNWFGGSYETVAGTPKVITVKQGIEQKPVEQRIHFSKGNAMSALAAHRVCGVPLETLARSRKPRDLTDDLSCAYQAQNIVSLFVATRILFSHLDSVFTLNLDEQEPEVAERLSDLRRINENNPGMVTQVLTVARQIYNDYVTHHPGLTPEQTSAGAQAGGGGSGGGGSGGGGSPGQGTQSENSCTHFPGNLPNMLRDLRDAFSRVKTFFQMKDQLDNLLLKESLLEDFKGYLGCQALSEMIQFYLEEVMPQAENQDPDIKAHVNSLGENLKTLRLRLRRCHRFLPCENKSKAVEQVKNAFNKLQEKGIYKAMSEFDIFINYIEAYMTMKIRN", "values": [{"measurement": "Purity (dimer purity)", "setting": "[10]", "result": 81.2}]}]}
